# Literature values as cited in patent publication US20100048608A1, “Histone Deacetylase Inhibitors for the Treatment of Ocular Neovascular or Edematous Disorders and Diseases” (ALCON, INC., priority 2002, published 2010).
# Experiments:
# [1] = phase I clinical trials; Kelly et al. 2001
# cancer cell [2] = settings: Butler et al. 2002
# cancer cell [3] = settings: Munster et al. 2001
# tumors = settings: Butler et al. 2000
# [4] = system: corneal neovascularization; settings: in combination with a beta cyclodextrin; Li et al. 1991
structure (smiles),measurement,setting,value
"O=C(CCCCCCC(=O)Nc1ccccc1)NO [SAHA, suberoylanilide hydroxamic acid]",dose-limiting toxicity,[1],almost no dose-limiting toxicity
same,suppression of white blood cell production,[1],no suppression of white blood cell production
same,cancer cell growth in vitro,cancer cell [2],arrest cancer cell growth in vitro
same,induction of cancer cell differentiation,cancer cell [3],potent inducer of cancer cell differentiation
same,effect on tumors in animal models,tumors,shrink tumors in animal models
"C[C@@H]1C[C@H]2[C@@H]3C[C@H](F)C4=CC(=O)CC[C@]4(C)C3=CC[C@]2(C)[C@@]1(O)C(=O)CO [U-72,745G]",inhibition of corneal neovascularization,[4],inhibit corneal neovascularization
C[C@]12CCC(=O)C=C1CC[C@@H]1[C@@H]2[C@@H](O)C[C@@]2(C)[C@H]1CC[C@]2(O)C(=O)CO [hydrocortisone],inhibition of corneal neovascularization,[4],inhibit corneal neovascularization
C[C@]12CC[C@@H](O)C[C@H]1CC[C@@H]1[C@@H]2CC[C@@]2(C)[C@H]1CC[C@]2(O)C(=O)CO [tetrahydrocortisol-S],inhibition of corneal neovascularization,[4],inhibit corneal neovascularization
